Reference: ChEMBL document CHEMBL4680139, “Antiproliferative activity of diarylnaphthylpyrrolidine derivative via dual target inhibition” (Eur J Med Chem, 2020)
In brackets after ≈: the same amount, converted by molar mass.

Assays:
[1] = tested on: MCF7; assay: Induction of cell cycle arrest in human MCF-7 cells assessed as accumulation at G0/G1 phase at 4.33 uM by propidium iodide staining based flow cytometry (reference value: 74.5%); assay type: functional
[2] = tested on: MCF7; assay: Antiproliferative activity against human MCF-7 cells assessed as inhibition of colony formation measured after 3 weeks by crystal violet staining based soft agar colony formation assay; assay type: functional, cell-based
[3] = Toxicity in Swiss albino mouse assessed as WBC level in blood at 5 mg/kg, po administered as single dose (reference value: 17.06 +/- 1.33x10^3/mm3); assay type: organism-based; settings: in vivo
[4] = Toxicity in Swiss albino mouse assessed as absolute and relative liver weight at 5 to 300 mg/kg, po administered as single dose; assay type: organism-based; settings: in vivo, dose 5-300 mg/kg
[5] = tested on: MCF7; assay: Antiproliferative activity against human MCF-7 cells assessed as proportion of dead cells at 25 ug/ml measured after 3 weeks by crystal violet staining based soft agar colony formation assay; assay type: functional; settings: dose 25 µg/ml
[6] = Toxicity in Swiss albino mouse assessed as RBC level in blood at 5 mg/kg, po administered as single dose (reference value: 10.56 +/- 1.22x10^6/mm3); assay type: organism-based; settings: in vivo
[7] = Inhibition of bovine brain tubulin polymerisation measured by turbidometric method; assay type: tissue-based, Bos taurus
[8] = Toxicity in po dosed Swiss albino mouse administered as single dose; assay type: organism-based; settings: in vivo
[9] = Toxicity in Swiss albino mouse assessed as serum protein level at 50 mg/kg, po administered as single dose (reference value: 2.83 +/-0.09 mg/ml); assay type: organism-based; settings: in vivo
[10] = Toxicity in Swiss albino mouse assessed as ALP level in serum at 300 mg/kg, po administered as single dose (reference value: 195.8 +/-12.06 U/L); assay type: organism-based; settings: in vivo
[11] = tested on: MDA-MB-231; assay: Induction of cell cycle arrest in human MDA-MB-231 cells assessed as accumulation at G0/G1 phase at 5.21 uM by propidium iodide staining based flow cytometry (reference value: 77.7 +/- 0.28%); assay type: functional
[12] = tested on: MDA-MB-231; assay: Induction of apoptosis in human MDA-MB-231 cells at 2.6 uM by propidium iodide staining based flow cytometry (reference value: 2.6 +/- 0.28%); assay type: functional
[13] = tested on: MDA-MB-231; assay: Induction of apoptosis in human MDA-MB-231 cells assessed as proportion of early apoptotic cells at 2.6 uM measured after 24 hrs by Annexin V-FITC/propidium iodide staining based flow cytometry (reference value: 0.2%); assay type: functional
[14] = tested on: MDA-MB-231; assay: Induction of apoptosis in human MDA-MB-231 cells at 10.42 uM by propidium iodide staining based flow cytometry (reference value: 2.6 +/- 0.28%); assay type: functional
[15] = Toxicity in Swiss albino mouse assessed as haemoglobin level in blood at 50 mg/kg, po administered as single dose (reference value: 12.05 +/-0.88 gm/dl); assay type: organism-based; settings: in vivo
[16] = Toxicity in Swiss albino mouse assessed as creatinine level in serum at 5 mg/kg, po administered as single dose (reference value: 0.27+/-0.02 mg/dl); assay type: organism-based; settings: in vivo
[17] = tested on: MCF7; assay: Induction of apoptosis in human MCF-7 cells at 4.33 uM by propidium iodide staining based flow cytometry (reference value: 2.1%); assay type: functional
[18] = Toxicity in Swiss albino mouse assessed as SGPT level in serum at 50 mg/kg, po administered as single dose (reference value: 21.81 +/-2.1 U/L); assay type: organism-based; settings: in vivo
[19] = tested on: MCF7; assay: Induction of apoptosis in human MCF-7 cells assessed as proportion of viable cells at 8.66 uM measured after 24 hrs by Annexin V- FITC/propidium iodide staining based flow cytometry (reference value: 94.6%); assay type: functional
[20] = tested on: MCF7; assay: Induction of apoptosis in human MCF-7 cells assessed as proportion of early apoptotic cells at 2.17 uM measured after 24 hrs by Annexin V- FITC/propidium iodide staining based flow cytometry (reference value: 0%); assay type: functional
[21] = tested on: MCF7; assay: Induction of cell cycle arrest in human MCF-7 cells assessed as accumulation at S phase at 4.33 uM by propidium iodide staining based flow cytometry (reference value: 6.9%); assay type: functional
[22] = tested on: MCF7; assay: Antiproliferative activity against human MCF-7 cells assessed as proportion of live cells at 12.5 ug/ml measured after 3 weeks by crystal violet staining based soft agar colony formation assay (reference value: 100%); assay type: functional; settings: dose 12.5 µg/ml
[23] = tested on: MCF7; assay: Induction of apoptosis in human MCF-7 cells assessed as proportion of late apoptotic cells at 2.17 uM measured after 24 hrs by Annexin V- FITC/propidium iodide staining based flow cytometry (reference value: 0.1%); assay type: functional
[24] = tested on: MCF7; assay: Induction of apoptosis in human MCF-7 cells assessed as proportion of late apoptotic cells at 4.33 uM measured after 24 hrs by Annexin V- FITC/propidium iodide staining based flow cytometry (reference value: 0.1%); assay type: functional
[25] = Toxicity in Swiss albino mouse assessed as SGPT level in serum at 5 mg/kg, po administered as single dose (reference value: 21.81 +/-2.1 U/L); assay type: organism-based; settings: in vivo
[26] = Toxicity in Swiss albino mouse assessed as WBC level in blood at 300 mg/kg, po administered as single dose (reference value: 17.06 +/- 1.33x10^3/mm3); assay type: organism-based; settings: in vivo
[27] = tested on: MCF7; assay: Induction of apoptosis in human MCF-7 cells assessed as proportion of viable cells at 4.33 uM measured after 24 hrs by Annexin V- FITC/propidium iodide staining based flow cytometry (reference value: 94.6%); assay type: functional
[28] = tested on: MCF7; assay: Induction of cell cycle arrest in human MCF-7 cells assessed as accumulation at S phase at 2.17 uM by propidium iodide staining based flow cytometry (reference value: 6.9%); assay type: functional
[29] = tested on: MDA-MB-231; assay: Antiproliferative activity against human MDA-MB-231 cells assessed as inhibition of cell growth measured after 48 hrs by SRB assay; assay type: functional, cell-based; settings: MDA-MB-231, 48 h, read-out: IC50
[30] = Toxicity in Swiss albino mouse assessed as body weight at 5 mg/kg, po administered as single dose (reference value: 31.62 +/- 1.64 gms); assay type: organism-based; settings: in vivo
[31] = tested on: MCF7; assay: Induction of cell cycle arrest in human MCF-7 cells assessed as accumulation at S phase at 8.66 uM by propidium iodide staining based flow cytometry (reference value: 6.9%); assay type: functional
[32] = tested on: MDA-MB-231; assay: Induction of cell cycle arrest in human MDA-MB-231 cells assessed as accumulation at S phase at 10.42 uM by propidium iodide staining based flow cytometry (reference value: 11.35 +/- 0.07%); assay type: functional
[33] = tested on: MCF7; assay: Antiproliferative activity against human MCF-7 cells assessed as proportion of dead cells at 6.25 ug/ml measured after 3 weeks by crystal violet staining based soft agar colony formation assay; assay type: functional; settings: dose 6.25 µg/ml
[34] = Toxicity in Swiss albino mouse assessed as total bilirubin level in serum at 50 mg/kg, po administered as single dose (reference value: 0.62 +/-0.05 mg/dl); assay type: organism-based; settings: in vivo
[35] = Toxicity in Swiss albino mouse assessed as absolute and relative brain weight at 5 to 300 mg/kg, po administered as single dose; assay type: organism-based; settings: in vivo, dose 5-300 mg/kg

SMILES: COc1ccc(C(c2ccccc2OCCN2CCCC2)c2cccc3ccccc23)c(OC)c1OC (stereo unspecified)
- Activity [1]: 67.4%
- inhibition [2]: Dose-dependent effect
- IC50 ([2]; MCF7, 504 h): 11.2 µg/mL (≈ 22.6 µM)
- Activity [3]: 11.11 10^3/mm3
- Activity [4]: Non-Toxic
- Activity [5]: 79.36%
- Activity [6]: 13.06 million/mm3
- IC50 [7]: 5.65 µM
- MTD [8]: ≤ 300 mg/kg
- Activity [9]: 2.52 mg/mL
- Activity [10]: 137.7 U/L
- Activity [11]: 79.1%
- Activity [12]: 2.7%
- Activity [13]: 0.8%
- Activity [14]: 16.7%
- Activity [15]: 9.96 g/dL
- Activity [16]: 0.22 mg/dL
- Activity [17]: 4.7%
- Activity [18]: 19.12 U/L
- Activity [19]: 61.8%
- Activity [20]: 0%
- Activity [21]: 13.9%
- Activity [22]: 47.2%
- Activity [23]: 16.5%
- Activity [24]: 25.8%
- Activity [25]: 21.18 U/L
- Activity [26]: 7.19 10^3/mm3
- Activity [27]: 63.1%
- Activity [28]: 10.9%
- IC50 [29]: 5.21 µM
- Activity [30]: 30.58 g
- Activity [31]: 9.2%
- Activity [32]: 11.35%
- Activity [33]: 29.23%
- Activity [34]: 0.62 mg/dL
- Activity [35]: Non-Toxic
